What all share (parameters): key: −: no saccharide-transferred product was detected through transfer reaction to acceptor; ±: a saccharide-transferred product was detected in an amount less than one percent through transfer reaction to acceptor; +: a saccharide-transferred product was detected in an amount over one percent but less than 10% through transfer reaction to acceptor; ++: a saccharide-transferred product was detected in an amount over ten percent through transfer reaction to acceptor

Assay [1] relates to α-isomaltosylglucosaccharide-forming enzyme. Kind of assay: Transfer-acceptor specificity, enzyme of C11 strain. It is filed as biochemical, Bacillus globisporus C11 strain. Conditions: acceptor 1.6%, PINE-DEX #100 donor 4%, one unit/g donor, 30° C., pH 6.0, 24 hours. The procedure: (§1) Using various saccharides, it was tested whether the saccharides were used as transferring-acceptors for α-isomaltosylglucosaccharide-forming enzyme. A solution of D-glucose, D-xylose, L-xylose, D-galactose, D-fructose, D-mannose, D-arabinose, D-fucose, D-psicose, L-sorbose, L-rhamnose, methyl-α-glucopyranoside, methyl-β-glucopyranoside, N-acetyl-glucosamine, sorbitol, α,α-trehalose, isomaltose, isomaltotriose, cellobiose, gentibiose, glycerol, maltitol, lactose, sucrose, α-cyclodextrin, β-cyclodextrin, γ-cyclodextrin, or L-ascorbic acid was prepared. To each solution with a saccharide concentration of 1.6% was added “PINE-DEX #100”, a partial starch hydrolyzate, as a saccharide donor, to give a concentration of 4%, and admixed with one unit/g saccharide donor, d.s.b., of either of purified specimens of α-isomaltosylglucosaccharide-forming enzyme from Bacillus globisporus C9 strain obtained by the method in Experiment 4-2, Bacillus globisporus C11 strain obtained by the method in Experiment 7-2, Bacillus globisporus N75 strain obtained by the method in Experiment 11-2, or Arthrobacter globiformis A19 strain obtained by the method in Experiment 15-2, and incubated at 30° C. and pH 6.0 for 24 hours, except that pH 8.4 was used for the enzyme from Arthrobacter globiformis A19 strain. The reaction mixtures of the post-enzymatic reactions were analyzed on gas chromatography (abbreviated as “GLC” hereinafter) for monosaccharides and disaccharides as acceptors, and on HPLC for trisaccharides as acceptors to confirm whether these saccharides could be used as the transfer acceptors of the above enzymes. In the case of performing GLC, the following apparatuses and conditions were used: GLC apparatus, “GC-16A” commercialized by Shimadzu Corporation, Tokyo, Japan; column, a stainless-steel column, 3 mm in diameter and 2 m in length, packed with 2% “SILICONE OV-17/CHROMOSOLV W”, commercialized by GL Sciences Inc., Tokyo, Japan; carrier gas, nitrogen gas at a flow rate of 40 ml/min under temperature conditions of increasing from 160° C. to 320° C. at an increasing temperature rate of 7.5° C./min; and detection, a hydrogen flame ionization detector. In the case of performing HPLC analysis, the following apparatuses and conditions were used: HPLC apparatus, “CCPD” commercialized by Tosoh Corporation, Tokyo, Japan; column, “ODS-AQ-303” commercialized by YMC Co., Ltd., Tokyo, Japan; eluent, water at a flow rate of 0.5 ml/min; and detection, a differential refractometer.

Assay [2] has the same test system. Briefly: Transfer-acceptor specificity, enzyme of A19 strain. The assay is classed as biochemical, Arthrobacter globiformis A19 strain. The note with it: acceptor 1.6%, PINE-DEX #100 donor 4%, one unit/g donor, 30° C., pH 8.4, 24 hours. The procedure:
as §1

Assay [3] has the same test system. Kind of assay: Transfer-acceptor specificity, enzyme of N75 strain. The assay is classed as biochemical, Bacillus globisporus N75 strain. The note with it: acceptor 1.6%, PINE-DEX #100 donor 4%, one unit/g donor, 30° C., pH 6.0, 24 hours. The protocol:
as §1

Assay [4] has the same test system. Kind of assay: Transfer-acceptor specificity, enzyme of C9 strain. The assay is classed as biochemical, Bacillus globisporus C9 strain. Conditions: acceptor 1.6%, PINE-DEX #100 donor 4%, one unit/g donor, 30° C., pH 6.0, 24 hours. The procedure: as §1

As for `C[C@H](O)[C@H](O)[C@@H](O)[C@@H](O)C=O` [L-Rhamnose, L-rhamnose], the “Product of transferring reaction, Enzyme of C11 strain” value (from here on “Product … of C11 strain”) in assay [1] is reported as “−”. Moreover, in assay [2], the “Product of transferring reaction, Enzyme of A19 strain” value (from here on “Product … of A19 strain”) was “−”. Moreover, the “Product of transferring reaction, Enzyme of N75 strain” value (from here on “Product … of N75 strain”) in assay [3] is on record as “−”. Moreover, the “Product of transferring reaction, Enzyme of C9 strain” value (from here on “Product … of C9 strain”) in assay [4] is reported as “−”.

For the compound `O=C(CO)[C@@H](O)[C@H](O)[C@@H](O)CO` [L-Sorbose, L-sorbose], in assay [1], the “Product … of C11 strain” value is given as “+ (a saccharide-transferred product was detected in an amount over one percent but less than 10% through transfer reaction to acceptor)”. In addition, the “Product … of A19 strain” value in assay [2] is given as “+ (a saccharide-transferred product was detected in an amount over one percent but less than 10% through transfer reaction to acceptor)”. Also, in assay [3], the “Product … of N75 strain” value is “+ (a saccharide-transferred product was detected in an amount over one percent but less than 10% through transfer reaction to acceptor)”. In addition, in assay [4], the “Product … of C9 strain” value is “+ (a saccharide-transferred product was detected in an amount over one percent but less than 10% through transfer reaction to acceptor)”.

Turning to `O=C[C@@H](O)[C@H](O)[C@@H](O)CO` [L-Xylose, L-xylose], in assay [1], the “Product … of C11 strain” value is on record as “++ (a saccharide-transferred product was detected in an amount over ten percent through transfer reaction to acceptor)”. In addition, the “Product … of A19 strain” value in assay [2] is “+ (a saccharide-transferred product was detected in an amount over one percent but less than 10% through transfer reaction to acceptor)”. The “Product … of N75 strain” value in assay [3] was “++ (a saccharide-transferred product was detected in an amount over ten percent through transfer reaction to acceptor)”. The “Product … of C9 strain” value in assay [4] is reported as “++ (a saccharide-transferred product was detected in an amount over ten percent through transfer reaction to acceptor)”.

On to `CO[C@H]1O[C@H](CO)[C@@H](O)[C@H](O)[C@H]1O` [Methyl-α-glucopyranoside, methyl-α-glucopyranoside], for which the “Product … of C11 strain” value in assay [1] is on record as “++ (a saccharide-transferred product was detected in an amount over ten percent through transfer reaction to acceptor)”. Further, the “Product … of A19 strain” value in assay [2] is given as “++ (a saccharide-transferred product was detected in an amount over ten percent through transfer reaction to acceptor)”. The “Product … of N75 strain” value in assay [3] is on record as “++ (a saccharide-transferred product was detected in an amount over ten percent through transfer reaction to acceptor)”. The “Product … of C9 strain” value in assay [4] was “++ (a saccharide-transferred product was detected in an amount over ten percent through transfer reaction to acceptor)”.

Consider `CO[C@@H]1O[C@H](CO)[C@@H](O)[C@H](O)[C@H]1O` [Methyl-β-glucopyranoside, methyl-β-glucopyranoside], for which the “Product … of C11 strain” value in assay [1] is given as “++ (a saccharide-transferred product was detected in an amount over ten percent through transfer reaction to acceptor)”. Moreover, in assay [2], the “Product … of A19 strain” value is given as “++ (a saccharide-transferred product was detected in an amount over ten percent through transfer reaction to acceptor)”. The “Product … of N75 strain” value in assay [3] is on record as “++ (a saccharide-transferred product was detected in an amount over ten percent through transfer reaction to acceptor)”. For the same compound, in assay [4], the “Product … of C9 strain” value is “++ (a saccharide-transferred product was detected in an amount over ten percent through transfer reaction to acceptor)”.

Consider `CC(=O)N[C@H]1C(O)O[C@H](CO)[C@@H](O)[C@@H]1O` (stereo partly shown) [N-Acetylglucosamine, N-acetyl-glucosamine], for which, in assay [1], the “Product … of C11 strain” value is reported as “+ (a saccharide-transferred product was detected in an amount over one percent but less than 10% through transfer reaction to acceptor)”. For the same compound, the “Product … of A19 strain” value in assay [2] was “−”. Moreover, the “Product … of N75 strain” value in assay [3] is reported as “+ (a saccharide-transferred product was detected in an amount over one percent but less than 10% through transfer reaction to acceptor)”. In addition, in assay [4], the “Product … of C9 strain” value was “+ (a saccharide-transferred product was detected in an amount over one percent but less than 10% through transfer reaction to acceptor)”.

As for `OC[C@@H](O)[C@@H](O)[C@H](O)[C@@H](O)CO` [Sorbitol, sorbitol], the “Product … of C11 strain” value in assay [1] is “−”. Besides, in assay [2], the “Product … of A19 strain” value is on record as “−”. For the same compound, the “Product … of N75 strain” value in assay [3] is recorded as “−”. Besides, the “Product … of C9 strain” value in assay [4] was “−”.

Consider `OC[C@H]1O[C@@H]2O[C@H]3[C@H](O)[C@@H](O)[C@@H](O[C@H]4[C@H](O)[C@@H](O)[C@@H](O[C@H]5[C@H](O)[C@@H](O)[C@@H](O[C@H]6[C@H](O)[C@@H](O)[C@@H](O[C@H]7[C@H](O)[C@@H](O)[C@@H](O[C@H]1[C@H](O)[C@H]2O)O[C@@H]7CO)O[C@@H]6CO)O[C@@H]5CO)O[C@@H]4CO)O[C@@H]3CO` [α-Cyclodextrin, α-cyclodextrin], for which the “Product … of C11 strain” value in assay [1] was “−”. The “Product … of A19 strain” value in assay [2] is listed as “−”. Moreover, the “Product … of N75 strain” value in assay [3] is recorded as “−”. For the same compound, in assay [4], the “Product … of C9 strain” value is recorded as “−”.

`OC[C@H]1O[C@@H]2O[C@H]3[C@H](O)[C@@H](O)[C@@H](O[C@H]4[C@H](O)[C@@H](O)[C@@H](O[C@H]5[C@H](O)[C@@H](O)[C@@H](O[C@H]6[C@H](O)[C@@H](O)[C@@H](O[C@H]7[C@H](O)[C@@H](O)[C@@H](O[C@H]8[C@H](O)[C@@H](O)[C@@H](O[C@H]1[C@H](O)[C@H]2O)O[C@@H]8CO)O[C@@H]7CO)O[C@@H]6CO)O[C@@H]5CO)O[C@@H]4CO)O[C@@H]3CO` [β-Cyclodextrin, β-cyclodextrin]: the “Product … of C11 strain” value in assay [1] was “−”. For the same compound, the “Product … of A19 strain” value in assay [2] is “−”. In addition, the “Product … of N75 strain” value in assay [3] was “−”. Moreover, in assay [4], the “Product … of C9 strain” value is “−”.

As for `OC[C@H]1O[C@@H]2O[C@H]3[C@H](O)[C@@H](O)[C@@H](O[C@H]4[C@H](O)[C@@H](O)[C@@H](O[C@H]5[C@H](O)[C@@H](O)[C@@H](O[C@H]6[C@H](O)[C@@H](O)[C@@H](O[C@H]7[C@H](O)[C@@H](O)[C@@H](O[C@H]8[C@H](O)[C@@H](O)[C@@H](O[C@H]9[C@H](O)[C@@H](O)[C@@H](O[C@H]1[C@H](O)[C@H]2O)O[C@@H]9CO)O[C@@H]8CO)O[C@@H]7CO)O[C@@H]6CO)O[C@@H]5CO)O[C@@H]4CO)O[C@@H]3CO` [γ-Cyclodextrin, γ-cyclodextrin], the “Product … of C11 strain” value in assay [1] is listed as “−”. The “Product … of A19 strain” value in assay [2] is listed as “−”. Moreover, in assay [3], the “Product … of N75 strain” value is on record as “−”. In assay [4], the “Product … of C9 strain” value is reported as “−”.
